Assay results taken from patent US8247170B2, “Detection of penicillin tolerance in Group B Streptococcus: single nucleotide polymorphisms in penicillin binding protein 4” (priority 2008, dated 2012).

Test system: GBS clinical isolates and laboratory strains
Assay: Macrobroth penicillin tolerance assay
Assay type: cell-based, Group B Streptococcus
Settings: then 24 h drug-free; for 100xMIC, regrowth O.D.600: Penicillin G 100×MIC90 48 h; for 300xMIC, regrowth O.D.600: Penicillin G 300×MIC90 48 h; for 10xMIC, regrowth O.D.600: Penicillin G 10×MIC90 48 h; for 30xMIC, regrowth O.D.600: Penicillin G 30×MIC90 48 h
Experimental: Using this modified penicillin tolerance assay, tolerant strains from the GBS clinical isolates can be more efficiently identified. In this macrobroth culture format, 25 ml THB broth GBS cultures (containing clinical isolates) were grown to an early exponential growth phase (˜0.2 OD600). Cell cultures (6 ml) were collected and divided into 4 culture tubes. […] Cell cultures were shaken at 150 rpm in order to maintain cells in suspension for proper growth. Subcultures (1/20 dilution) of cells were put into fresh THB containing […] Penase (i.e., 100 μl of Penase 10,000 U stock into 4 ml THB culture). Subcultures were allowed to grow for 24 hours at 37° C. Cell growth was monitored by OD (see Example 2).
(I) Bacterial Strains and Culture Conditions. GBS strains A909 (serotype IA), 515 (serotype IA), NEM316 (serotype III), COHI (serotype III), 2603V/R (serotype V) and O90R (non-typable) were used in this study. E. coli Top10 cells were used for the recombination experiments. GBS was cultured in Todd Hewitt broth (THB) or Tryptic Soy 5% sheep blood (TS) media and E. coli in Luria-broth (LB) medium or agar. Antibiotics were used at the following concentrations: for GBS—penicillin G (MIC90 0.06 μg ml^−1), ampicillin (MIC90 0.12 μg ml^−1), vancomycin (MIC90 2 μg ml^−1), cefazolin (MIC90 1 μg ml^−1) and chloramphenicol (5 μg ml^−1); for E. coli—ampicillin (50 μg ml^−1) and chloramphenicol (5 μg ml^−1). Both GBS and E. coli cultures were grown at 37° C. (II) Tolerance Using the MBC:MIC Ratio Method. Three GBS laboratory strains (i.e., A909, NEM316, and O90R) were cultured overnight for 18 h at 37° C. in THB. Subcultures in THB were subsequently grown to exponential phase (OD600˜0.3; i.e. 5×10^5 cfu/ml) at 37° C. Cell cultures were then exposed to different concentrations of antibiotics (Penicillin G, Ampicillin, Cefozolin or Vancomycin). […] Cell cultures were dispersed every 18 h before OD600 was measured to determine the lowest concentration of antibiotic with 90% growth inhibition (MIC90). Antibiotic treated cells (8 μl) from each well were re-suspended into PBS (100 μl) and plated (54 μl) on TS agar plates and allowed to grow for an additional 24 h at 37° C. Cell count was performed to determine the lowest concentration of antibiotic with 90% killing of original inoculums (MBC90). (III) Penicillin Killing and Regrowth Tolerance Assay by Microbroth Dilution. Three GBS laboratory strains (i.e., A909, NEM316, and O90R) were cultured overnight for 18 h at 37° C. in THB. Subcultures in THB were subsequently grown to exponential phase (OD600˜0.3) at 37° C. Cell cultures were then exposed to different concentrations of Penicillin G (Sigma, St. Louis, Mo.). […] Cell cultures were dispersed. A 1:20 dilution of cells was re-plated into new wells containing fresh THB with 500 U Penase (to degrade residual penicillin). Cell cultures were allowed to re-grow for an additional 24 h at 37° C. before the OD600 was measured. (IV) Measuring Cell Viability by Determining ATP Concentration. GBS strains were cultured for 18 h at 37° C. in THB. These cells were inoculated into fresh THB and subsequently allowed to grow to exponential phase (OD600 0.25-0.3) at 37° C. One ml of each culture was centrifuged at 5,000×g for 4 min. The cell pellet was re-suspended in ATP-free water. Cellular ATP was extracted using trichloroacetic acid (TCA) (5%) for 2 min and subsequently neutralized with Tris-EDTA-0.1M NaOAc, pH 7.75 to 10×TCA volume. The initial (in.) cellular ATP concentration ([ATP]) was measured using the ENLITEN (Promega) luciferase based reaction kit. THB cultures were then treated with 100×MIC90 Penicillin G for 22 h. The experimental (exp.) cellular ATP was extracted and the concentration was measured as stated above. Based on the calculations ([ATP] exp.)/([ATP] in./O.D. in.), differences in viability were equated with the change in [ATP]. (V) Measuring Penicillin Induced Lysis. Three GBS laboratory strains (A909, NEM316, and O90R) were cultured for 18 h at 37° C. in THB. […]

CC1(C)S[C@@H]2[C@H](NC(=O)Cc3ccccc3)C(=O)N2[C@H]1C(=O)O [Penicillin G]
100xMIC, regrowth O.D.600 (GBS strain 47 (III)): −− (“−−” indicates an O.D.600 of 0.001 to 0.099)
300xMIC, regrowth O.D.600 (GBS strain 47 (III)): −− (“−−” indicates an O.D.600 of 0.001 to 0.099)
10xMIC, regrowth O.D.600 (GBS strain 60 (NT)): + (“+” indicates an O.D.600 of 0.100 to 0.250)
30xMIC, regrowth O.D.600 (GBS strain 60 (NT)): ++ (“++” indicates an O.D.600 of 0.251 to 0.750)
100xMIC, regrowth O.D.600 (GBS strain 60 (NT)): + (“+” indicates an O.D.600 of 0.100 to 0.250)
300xMIC, regrowth O.D.600 (GBS strain 60 (NT)): + (“+” indicates an O.D.600 of 0.100 to 0.250)
10xMIC, regrowth O.D.600 (GBS strain 68 (III)): + (“+” indicates an O.D.600 of 0.100 to 0.250)
30xMIC, regrowth O.D.600 (GBS strain 68 (III)): −− (“−−” indicates an O.D.600 of 0.001 to 0.099)
100xMIC, regrowth O.D.600 (GBS strain 68 (III)): + (“+” indicates an O.D.600 of 0.100 to 0.250)
300xMIC, regrowth O.D.600 (GBS strain 68 (III)): + (“+” indicates an O.D.600 of 0.100 to 0.250)
10xMIC, regrowth O.D.600 (GBS strain 71 (III)): −− (“−−” indicates an O.D.600 of 0.001 to 0.099)
30xMIC, regrowth O.D.600 (GBS strain 71 (III)): −− (“−−” indicates an O.D.600 of 0.001 to 0.099)
100xMIC, regrowth O.D.600 (GBS strain 71 (III)): −− (“−−” indicates an O.D.600 of 0.001 to 0.099)
300xMIC, regrowth O.D.600 (GBS strain 71 (III)): −− (“−−” indicates an O.D.600 of 0.001 to 0.099)
10xMIC, regrowth O.D.600 (GBS strain 90 (Ib)): −− (“−−” indicates an O.D.600 of 0.001 to 0.099)
30xMIC, regrowth O.D.600 (GBS strain 90 (Ib)): −− (“−−” indicates an O.D.600 of 0.001 to 0.099)
100xMIC, regrowth O.D.600 (GBS strain 90 (Ib)): −− (“−−” indicates an O.D.600 of 0.001 to 0.099)
300xMIC, regrowth O.D.600 (GBS strain 90 (Ib)): −− (“−−” indicates an O.D.600 of 0.001 to 0.099)
10xMIC, regrowth O.D.600 (GBS strain 91 (III)): −− (“−−” indicates an O.D.600 of 0.001 to 0.099)
30xMIC, regrowth O.D.600 (GBS strain 91 (III)): −− (“−−” indicates an O.D.600 of 0.001 to 0.099)
100xMIC, regrowth O.D.600 (GBS strain 91 (III)): −− (“−−” indicates an O.D.600 of 0.001 to 0.099)
300xMIC, regrowth O.D.600 (GBS strain 91 (III)): −− (“−−” indicates an O.D.600 of 0.001 to 0.099)
10xMIC, regrowth O.D.600 (GBS strain 93 (Ib)): −− (“−−” indicates an O.D.600 of 0.001 to 0.099)
30xMIC, regrowth O.D.600 (GBS strain 93 (Ib)): −− (“−−” indicates an O.D.600 of 0.001 to 0.099)
100xMIC, regrowth O.D.600 (GBS strain 93 (Ib)): −− (“−−” indicates an O.D.600 of 0.001 to 0.099)
300xMIC, regrowth O.D.600 (GBS strain 93 (Ib)): −− (“−−” indicates an O.D.600 of 0.001 to 0.099)
10xMIC, regrowth O.D.600 (GBS strain 97 (V)): −− (“−−” indicates an O.D.600 of 0.001 to 0.099)
30xMIC, regrowth O.D.600 (GBS strain 97 (V)): ++ (“++” indicates an O.D.600 of 0.251 to 0.750)
100xMIC, regrowth O.D.600 (GBS strain 97 (V)): ++ (“++” indicates an O.D.600 of 0.251 to 0.750)
300xMIC, regrowth O.D.600 (GBS strain 97 (V)): ++ (“++” indicates an O.D.600 of 0.251 to 0.750)
10xMIC, regrowth O.D.600 (GBS strain 101 (NT)): −− (“−−” indicates an O.D.600 of 0.001 to 0.099)
30xMIC, regrowth O.D.600 (GBS strain 101 (NT)): −− (“−−” indicates an O.D.600 of 0.001 to 0.099)
100xMIC, regrowth O.D.600 (GBS strain 101 (NT)): −− (“−−” indicates an O.D.600 of 0.001 to 0.099)
300xMIC, regrowth O.D.600 (GBS strain 101 (NT)): −− (“−−” indicates an O.D.600 of 0.001 to 0.099)
10xMIC, regrowth O.D.600 (GBS strain 117 (Ia)): + (“+” indicates an O.D.600 of 0.100 to 0.250)
30xMIC, regrowth O.D.600 (GBS strain 117 (Ia)): + (“+” indicates an O.D.600 of 0.100 to 0.250)
100xMIC, regrowth O.D.600 (GBS strain 117 (Ia)): + (“+” indicates an O.D.600 of 0.100 to 0.250)
300xMIC, regrowth O.D.600 (GBS strain 117 (Ia)): + (“+” indicates an O.D.600 of 0.100 to 0.250)
10xMIC, regrowth O.D.600 (GBS strain 122 (III)): −− (“−−” indicates an O.D.600 of 0.001 to 0.099)
30xMIC, regrowth O.D.600 (GBS strain 122 (III)): −− (“−−” indicates an O.D.600 of 0.001 to 0.099)
100xMIC, regrowth O.D.600 (GBS strain 122 (III)): −− (“−−” indicates an O.D.600 of 0.001 to 0.099)
300xMIC, regrowth O.D.600 (GBS strain 122 (III)): −− (“−−” indicates an O.D.600 of 0.001 to 0.099)
10xMIC, regrowth O.D.600 (GBS strain 127 (Ia)): −− (“−−” indicates an O.D.600 of 0.001 to 0.099)
30xMIC, regrowth O.D.600 (GBS strain 127 (Ia)): ++ (“++” indicates an O.D.600 of 0.251 to 0.750)
100xMIC, regrowth O.D.600 (GBS strain 127 (Ia)): ++ (“++” indicates an O.D.600 of 0.251 to 0.750)
300xMIC, regrowth O.D.600 (GBS strain 127 (Ia)): ++ (“++” indicates an O.D.600 of 0.251 to 0.750)
10xMIC, regrowth O.D.600 (GBS strain 129 (V)): −− (“−−” indicates an O.D.600 of 0.001 to 0.099)
30xMIC, regrowth O.D.600 (GBS strain 129 (V)): −− (“−−” indicates an O.D.600 of 0.001 to 0.099)
100xMIC, regrowth O.D.600 (GBS strain 129 (V)): −− (“−−” indicates an O.D.600 of 0.001 to 0.099)
300xMIC, regrowth O.D.600 (GBS strain 129 (V)): −− (“−−” indicates an O.D.600 of 0.001 to 0.099)
10xMIC, regrowth O.D.600 (GBS strain 131 (V)): −− (“−−” indicates an O.D.600 of 0.001 to 0.099)
30xMIC, regrowth O.D.600 (GBS strain 131 (V)): −− (“−−” indicates an O.D.600 of 0.001 to 0.099)
100xMIC, regrowth O.D.600 (GBS strain 131 (V)): −− (“−−” indicates an O.D.600 of 0.001 to 0.099)
300xMIC, regrowth O.D.600 (GBS strain 131 (V)): −− (“−−” indicates an O.D.600 of 0.001 to 0.099)
10xMIC, regrowth O.D.600 (GBS strain 156 (Ia)): −− (“−−” indicates an O.D.600 of 0.001 to 0.099)
30xMIC, regrowth O.D.600 (GBS strain 156 (Ia)): −− (“−−” indicates an O.D.600 of 0.001 to 0.099)
100xMIC, regrowth O.D.600 (GBS strain 156 (Ia)): −− (“−−” indicates an O.D.600 of 0.001 to 0.099)
300xMIC, regrowth O.D.600 (GBS strain 156 (Ia)): ++ (“++” indicates an O.D.600 of 0.251 to 0.750)
10xMIC, regrowth O.D.600 (GBS strain 172 (NT)): −− (“−−” indicates an O.D.600 of 0.001 to 0.099)
